Several values for one entry are separate records, joined by “and”; a condition that tells them apart may be missing. Equal values may be shown once. Inconclusive results and toxic doses are left out. How the source made its calls: active means survival T/C of 150% or more; inactive means T/C below 125% in these data.
Tested on: P388 leukemia ip, CD2F1 mice, survival T/C
Experiment: NCI In Vivo Anticancer Drug Screen. Data for tumor model P388 Leukemia (intraperitoneal) in CD2F1 (CDF1) mice
Conditions: endpoint: median survival time, higher = longer survival
How it was run: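 Mice carrying the transplanted tumor received test compound or vehicle. Survival was recorded in each group, and the value is the treated-group measurement divided by that of the vehicle-treated control group.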

[1] = dose: 100.0 mg/kg/injection, schedule: Q01DX009 (ip), vehicle: saline with Tween-80
[2] = dose: 200.0 mg/kg/injection, schedule: Q01DX009 (ip), vehicle: saline with Tween-80
[3] = dose: 400.0 mg/kg/injection, schedule: Q01DX009 (ip), vehicle: saline with Tween-80
[4] = dose: 50.0 mg/kg/injection, schedule: Q01DX005 (ip), vehicle: Klucel (hydroxypropylcellulose) (HPC)
[5] = dose: 100.0 mg/kg/injection, schedule: Q01DX005 (ip), vehicle: Klucel (hydroxypropylcellulose) (HPC)
[6] = dose: 200.0 mg/kg/injection, schedule: Q01DX005 (ip), vehicle: Klucel (hydroxypropylcellulose) (HPC)
[7] = dose: 60.0 mg/kg/injection, schedule: Q01DX005 (ip), vehicle: saline with Tween-80
[8] = dose: 120.0 mg/kg/injection, schedule: Q01DX005 (ip), vehicle: saline with Tween-80
[9] = dose: 50.0 mg/kg/injection, schedule: Q01DX005 (ip), vehicle: saline with Tween-80
[10] = dose: 100.0 mg/kg/injection, schedule: Q01DX005 (ip), vehicle: saline with Tween-80
[11] = dose: 200.0 mg/kg/injection, schedule: Q01DX005 (ip), vehicle: saline with Tween-80
[12] = dose: 50.0 mg/kg/injection, schedule: Q01DX009 (ip), vehicle: saline with Tween-80
[13] = dose: 50.0 mg/kg/injection, schedule: Q01DX009 (ip), vehicle: saline
[14] = dose: 100.0 mg/kg/injection, schedule: Q01DX009 (ip), vehicle: saline
[15] = dose: 200.0 mg/kg/injection, schedule: Q01DX009 (ip), vehicle: saline

Measured: T/C

CN1COc2c(n(C)c(=O)[nH]c2=O)C1
inactive: dose: 50.0 mg/kg/injection, schedule: Q01DX005 (ip), vehicle: saline 102 % of control and 106 % of control | dose: 100.0 mg/kg/injection, schedule: Q01DX005 (ip), vehicle: saline 114 % of control and 115 % of control

O=C(/C=C/c1ccccc1)N1CCCCC1
inactive: [1] 90 % of control | [2] 95 % of control | [3] 95 % of control

O=S(=O)(O)C(O)c1cccnc1 (stereo not drawn)
inactive: dose: 100.0 mg/kg/injection, schedule: Q01DX009 (ip), vehicle: saline sonified 100 % of control | dose: 200.0 mg/kg/injection, schedule: Q01DX009 (ip), vehicle: saline sonified 100 % of control | dose: 400.0 mg/kg/injection, schedule: Q01DX009 (ip), vehicle: saline sonified 100 % of control

CC(=O)OCC1OC(n2cnc3c(Cl)nc(Cl)nc32)CC(OC(C)=O)C1OC(C)=O (stereo not drawn)
inactive: [4] 93 % of control | [5] 99 % of control | [6] 91 % of control

O=C1NC(=O)C(F)[CH]([Ge](=[O])[O][Ge](=[O])[CH]2NC(=O)NC(=O)C2F)N1 (stereo not drawn)
inactive: dose: 30.0 mg/kg/injection, schedule: Q04DX002 (ip), vehicle: water 100 % of control | dose: 60.0 mg/kg/injection, schedule: Q04DX002 (ip), vehicle: water 97 % of control | dose: 100.0 mg/kg/injection, schedule: Q04DX002 (ip), vehicle: water 91 % of control | dose: 120.0 mg/kg/injection, schedule: Q04DX002 (ip), vehicle: water 100 % of control | dose: 200.0 mg/kg/injection, schedule: Q04DX002 (ip), vehicle: water 92 % of control | dose: 240.0 mg/kg/injection, schedule: Q04DX002 (ip), vehicle: water 100 % of control

Cc1cc(C)n2c(-c3ccccc3)c(C)c(C#N)c2n1
inactive: [7] 106 % of control | [8] 100 % of control | dose: 240.0 mg/kg/injection, schedule: Q01DX005 (ip), vehicle: saline with Tween-80 91 % of control

COC(=O)C1[C@@H](C(=O)c2ccccc2)N2C=Cc3ccccc3[C@@H]2[C@H]1C(=O)OC (stereo partly drawn)
inactive: dose: 60.0 mg/kg/injection, schedule: Q01DX005 (ip), vehicle: saline + Tween-80 + alcohol 93 % of control | dose: 120.0 mg/kg/injection, schedule: Q01DX005 (ip), vehicle: saline + Tween-80 + alcohol 93 % of control | dose: 240.0 mg/kg/injection, schedule: Q01DX005 (ip), vehicle: saline + Tween-80 + alcohol 92 % of control

Cc1cc(=O)c2ccc(Br)cc2[nH]1
inactive: [9] 100 % of control | [10] 97 % of control | [11] 100 % of control

CCN(CC)CCCC(C)NCCCN (stereo not drawn)
inactive: dose: 100.0 mg/kg/injection, schedule: Q04DX003 (ip), vehicle: saline 100 % of control | dose: 200.0 mg/kg/injection, schedule: Q04DX003 (ip), vehicle: saline 90 % of control

CCn1cc(C(=O)O)c(=O)c2cc3c(cc21)OCO3
inactive: dose: 60.0 mg/kg/injection, schedule: Q01DX005 (ip), vehicle: Klucel (hydroxypropylcellulose) (HPC) 100 % of control | dose: 120.0 mg/kg/injection, schedule: Q01DX005 (ip), vehicle: Klucel (hydroxypropylcellulose) (HPC) 103 % of control | dose: 240.0 mg/kg/injection, schedule: Q01DX005 (ip), vehicle: Klucel (hydroxypropylcellulose) (HPC) 100 % of control

CN1C2=C(C(=O)CCC2)C(c2ccccc2)C2=C1CCCC2=O
inactive: [9] 103 % of control | [10] 100 % of control | [11] 98 % of control

N=C1SCc2ccc3ccccc3c21
inactive: [12] 100 % of control | [1] 124 % of control | [3] 97 % of control

N=C(N)SCCN1C(=O)NC(c2ccccc2)(c2ccccc2)C1=O
inactive: dose: 25.0 mg/kg/injection, schedule: Q04DX003 (ip), vehicle: Klucel (hydroxypropylcellulose) (HPC) 114 % of control | dose: 50.0 mg/kg/injection, schedule: Q04DX003 (ip), vehicle: Klucel (hydroxypropylcellulose) (HPC) 114 % of control | dose: 100.0 mg/kg/injection, schedule: Q04DX003 (ip), vehicle: Klucel (hydroxypropylcellulose) (HPC) 96 % of control | dose: 200.0 mg/kg/injection, schedule: Q04DX003 (ip), vehicle: Klucel (hydroxypropylcellulose) (HPC) 114 % of control

[CH3][Sb]([CH3])([CH3])([CH3])[I]
inactive: [13] 98 % of control | [14] 100 % of control | [15] 95 % of control

OCCc1cc[nH]c1
inactive: [1] 104 % of control | [2] 104 % of control | [3] 95 % of control

COc1cc(C2SCC(=O)N2c2nnc(C(F)(F)F)s2)cc(OC)c1OC (stereo not drawn)
inactive: [7] 98 % of control | [8] 88 % of control

O=c1c2cc(OCO)ccc2[nH]c2cc3c(=O)c4cc(OCO)ccc4[nH]c3cc12
inactive: [13] 102 % of control | [14] 99 % of control | [15] 93 % of control

[NH-]CC([NH-])=O.[NH-]CC([NH-])=O.[Ni]
inactive: dose: 1.0 mg/kg/injection, schedule: Q01DX009 (ip), vehicle: saline 100 % of control | dose: 2.0 mg/kg/injection, schedule: Q01DX009 (ip), vehicle: saline 95 % of control | dose: 4.0 mg/kg/injection, schedule: Q01DX009 (ip), vehicle: saline 100 % of control | dose: 8.0 mg/kg/injection, schedule: Q01DX009 (ip), vehicle: saline 100 % of control

O=C(O)c1cc(I)cc(I)c1
inactive: dose: 37.5 mg/kg/injection, schedule: Q01DX009 (ip), vehicle: saline with Tween-80 99 % of control | dose: 75.0 mg/kg/injection, schedule: Q01DX009 (ip), vehicle: saline with Tween-80 104 % of control | dose: 100.0 mg/kg/injection, schedule: Q04DX003 (ip), vehicle: saline with Tween-80 98 % of control | dose: 150.0 mg/kg/injection, schedule: Q01DX009 (ip), vehicle: saline with Tween-80 95 % of control | dose: 200.0 mg/kg/injection, schedule: Q04DX003 (ip), vehicle: saline with Tween-80 96 % of control | dose: 400.0 mg/kg/injection, schedule: Q04DX003 (ip), vehicle: saline with Tween-80 96 % of control

CCOC(=O)N(C)C(C)=O
inactive: dose: 6.25 mg/kg/injection, schedule: Q01DX009 (ip), vehicle: saline with Tween-80 100 % of control | dose: 12.5 mg/kg/injection, schedule: Q01DX009 (ip), vehicle: saline with Tween-80 97 % of control | dose: 25.0 mg/kg/injection, schedule: Q01DX009 (ip), vehicle: saline with Tween-80 106 % of control | [12] 104 % of control | [1] 96 % of control | [15] 103 % of control

CN1C(=O)N(C)C2=NC(=O)N(C)C2(C(Cl)(Cl)Cl)C1=O (stereo not drawn)
inactive: dose: 7.5 mg/kg/injection, schedule: Q01DX005 (ip), vehicle: saline with Tween-80 103 % of control | dose: 15.0 mg/kg/injection, schedule: Q01DX005 (ip), vehicle: saline with Tween-80 102 % of control | dose: 30.0 mg/kg/injection, schedule: Q01DX005 (ip), vehicle: saline with Tween-80 112 % of control | [7] 112 % of control

COc1ccc(NC(=S)NC2C(OC(C)=O)OC(COC(C)=O)C(OC(C)=O)C2OC(C)=O)cc1 (stereo not drawn)
inactive: [9] 92 % of control | [10] 92 % of control | [11] 89 % of control

CSC(=S)N/N=C(\C)c1nccnc1C
inactive: [9] 101 % of control | [10] 106 % of control | [11] 111 % of control

c1ccc2c(NCCCCNc3c4ccccc4nc4ccccc34)c3ccccc3nc2c1
inactive: dose: 0.62 mg/kg/injection, schedule: Q## X009 (ip), vehicle: lactic acid 101 % of control | dose: 1.25 mg/kg/injection, schedule: Q## X009 (ip), vehicle: lactic acid 102 % of control | dose: 2.5 mg/kg/injection, schedule: Q## X009 (ip), vehicle: lactic acid 104 % of control | dose: 5.0 mg/kg/injection, schedule: Q## X009 (ip), vehicle: lactic acid 104 % of control | dose: 10.0 mg/kg/injection, schedule: Q## X009 (ip), vehicle: lactic acid 110 % of control

O=c1[nH]cnc2nc(N3CCOCC3)sc12
inactive: [9] 93 % of control | [8] 96 % of control | [11] 95 % of control

c1cc2c(cc1CC1CCNC1)OCO2 (stereo not drawn)
inactive: dose: 5.0 mg/kg/injection, schedule: Q01DX009 (ip), vehicle: saline 95 % of control | dose: 10.0 mg/kg/injection, schedule: Q01DX009 (ip), vehicle: saline 100 % of control | dose: 20.0 mg/kg/injection, schedule: Q01DX009 (ip), vehicle: saline 95 % of control

CN1CCC(C(C)(C)C)CC1
inactive: dose: 25.0 mg/kg/injection, schedule: Q01DX005 (ip), vehicle: Klucel (hydroxypropylcellulose) (HPC) 89 % of control | [4] 94 % of control | [5] 93 % of control | [6] 98 % of control
